Test results reported in patent publication US5750578A, “Use of betulin and analogs thereof to treat herpesvirus infection” (priority 1997, dated 1998).
“Also recorded” adds a separate entry of the source.

Key:
SK-N-MC cells = assay: Cytotoxicity test and drug controls, SK-N-MC cells; type: cell-based, human; set-up: Betulin control (monolayer rating) / Acyclovir control (monolayer rating): key to the marks not given beside the values
Vero cells = assay: Cytotoxicity test and drug controls, Vero cells; set-up: Betulin control (monolayer rating) / Acyclovir control (monolayer rating): key to the marks not given beside the values
Protocol: Human epithelial type 2 (HEp2), African green monkey kidney (Vero) and human neuroblastoma (SK-N-MC) cells were purchased from American Type Culture Collection (ATCC-Rockville, Md.). These cells were grown at 37° C. in the presence of 5% carbon dioxide tension in minimal essential medium (MEM-Eagle) containing 0.1 mM of nonessential amino acids, and Earl's BSS 90% supplemented with 5% Newborn Calf Serum (NCS) and 1% penicillin/streptomycine sulfate. For SK-N-MC cells, 1.0 mM sodium pyruvate, and 10% NCS was used. The stock cells were prepared and stored at -80° C. in 5% dimethyl sulfoxide (DMSO).
A betulin solution containing 0.5 mg of betulin/1000 ml of water was filtered using a […] pore size filter (Gelman) attached to a 35 ml volume syringe to remove bacteria and other larger organisms. This sterile sample was further diluted to 1:2, 1:4, and 1:8 using distilled, deionized sterile water.
The cytotoxic effect of betulin was observed by using a 24-well microtiter plate. Each well contained 1 ml of MEM with supplements containing 1200 HEp2, Vero or SK-N-MC cells. The plates were incubated for 48 hours at 37° C. in 5% carbon dioxide tension and followed by replacement of the medium with 1.0 ml of MEM with specific supplements.
A 1.0 ml of sterile betulin solution in duplicate at varying two-fold dilution were placed into labeled wells. No betulin solution was placed in the control wells containing a monolayer of cells. These microtiter plates were incubated at 37° C. and 5% carbon dioxide tension for 48 hours and rated as follows.
Similarly, a plus 2 (++) for 75% monolayer, a plus one (+) for 50% monolayer, and a plus minus (±) for 25% monolayer development. A minus rating means that most of the cells are abnormal, whereas a double minus (--) rating was given to wells containing all abnormal cells due to cytotoxic effect of betulin solution. Noncytotoxic dilutions and the highest dilution of betulin showing cytotoxicity, if any, were used in the protection tests. […]

HEp2 cells = assay: Cytotoxicity test and drug controls, HEp2 cells; type: cell-based, human; set-up: Betulin control (monolayer rating) / Acyclovir control (monolayer rating): key to the marks not given beside the values
HSV-1 [1] = assay: Cell protection test, HSV-1 in Vero cells; type: cell-based, herpes simplex virus type 1 (KOS, patent strain); conditions: duplicate wells, 72 hours
Protocol: (§1) Two different HSV-1 and HSV-2 strains were used: HSV-1 (KOS), HSV-2 (MS). Also, HSV-1 (patent strain) and HSV-2 (patent strain) were purchased from ATCC and propagated in HEp2 cell monolayers. Virus stocks were prepared by adsorbing 1 ml of virus suspension containing 1 ×10^5 virus particles for one hour in HEp2 cells at 37° C. in 5% carbon dioxide tension. This stock was incubated under similar conditions for 48 hours after adding 15 ml of MEM containing the usual supplements.
(§2) Infected cells were harvested and disrupted through three cycles of freezing and thawing. The contents in the flasks were pooled, and the supernatant virus particles were collected by centrifugation at 3000 rpm for 5 minutes. The virus suspension dispensed in 2.5 ml aliquot each and […] using both microtitration and plaque counting methods. HSV-1 and HSV-2 containing 5×10^4 PFU/ml and 5.25×10^4 PFU/ml respectively were stored at -80° C. until needed.
(§3) A plus 3 (+++) was given to the wells in which betulin solutions protected the cells without any cytopathic effect as compared to cell and betulin control.

HSV-1 [2] = assay: Cell protection test, HSV-1 in SK-N-MC cells; type: cell-based, herpes simplex virus type 1 (KOS, patent strain); conditions: duplicate wells, 72 hours
Protocol: as §1, §2, §3

HSV-2 [3] = assay: Cell protection test, HSV-2 in SK-N-MC cells; type: cell-based, herpes simplex virus type 2 (MS, patent strain); conditions: duplicate wells, 72 hours
Protocol: as §1, §2, §3

HSV-1 and HSV-2 = assay: Cell protection tests, overall, HSV-1 and HSV-2 in three cell lines; type: cell-based
Protocol: as §1, §2, §3

HSV-2 [4] = assay: Cell protection test, HSV-2 in HEp2 cells; type: cell-based, herpes simplex virus type 2 (MS, patent strain); conditions: duplicate wells, 72 hours
Protocol: as §1, §2, §3

HSV-1 [5] = assay: Cell protection test, HSV-1 in HEp2 cells; type: cell-based, herpes simplex virus type 1 (KOS, patent strain); conditions: duplicate wells, 72 hours
Protocol: as §1, §2, §3

HSV-2 [6] = assay: Cell protection test, HSV-2 in Vero cells; type: cell-based, herpes simplex virus type 2 (MS, patent strain); conditions: acyclovir 25 mg; duplicate wells; 72 hours
Protocol: as §1, §2, §3

[7] = betulin 0.5 mg/l and two-fold dilutions, 48 hours
[8] = acyclovir 50 mg/l and two-fold serial dilution

## C=C(C)[C@@H]1CC[C@]2(CO)CC[C@]3(C)[C@H](CC[C@@H]4[C@@]5(C)CC[C@H](O)C(C)(C)[C@@H]5CC[C@]43C)[C@@H]12 [Betulin, lup-20(29)-ene-3β, 28-diol]
SK-N-MC cells; [7]
  Cytotoxic effect: not toxic; also recorded: did not show any cytotoxic effect
SK-N-MC cells; control wells, highest concentration of betulin, Tables 5 and 6
  Betulin control (monolayer rating): +++
Vero cells; [7]
  Cytotoxic effect: not toxic; also recorded: did not show any cytotoxic effect
Vero cells; control wells, highest concentration of betulin, Tables 3 and 4
  Betulin control (monolayer rating): +++
HEp2 cells; [7]
  Cytotoxic effect: not toxic; also recorded: did not show any cytotoxic effect
HEp2 cells; control wells, highest concentration of betulin, Tables 1 and 2
  Betulin control (monolayer rating): +++
HSV-1 [1]; betulin 0.5 mg
  Effectiveness of betulin against HSV-1 in vero cells: ++±
HSV-1 [2]; betulin 0.5 mg
  Effectiveness of betulin against HSV-1 in SK-N-MC cells: ++±
HSV-2 [3]; betulin 0.5 mg
  Effectiveness of betulin against HSV-2 in SK-N-MC cells: ++±
HSV-1 and HSV-2; 0.5 mg/l betulin vs 25 mg/l ACV, three cell types
  Effectiveness in protecting indicator cell monolayers compared to acyclovir: as effective as 25 mg/l of ACV
HSV-1 and HSV-2; after 72 hours
  Spread of virus from the infected cells: did not spread from the infected cells
HSV-1 and HSV-2; three different cell lines
  Effectiveness against HSV-2 compared to HSV-1: slightly more effective in protecting all three different cell lines against HSV-2 strains than HSV-1 strains; also recorded: more effective against HSV-2 compared to HSV-1
HSV-2 [4]; betulin 0.25 mg
  Effectiveness of betulin against HSV-2 in HEp2 cells: ++±
HSV-1 [5]; betulin 0.5 mg [mg/l]
  Effectiveness of betulin against HSV-1 in HEp2 cells: ++±

## Nc1nc2c(ncn2COCCO)c(=O)[nH]1 [Acyclovir, reference compound]
SK-N-MC cells
  Acyclovir control (monolayer rating): +++
SK-N-MC cells; [8]
  Cytotoxic effect: no cytotoxic effect was observed
Vero cells
  Acyclovir control (monolayer rating): +++
HEp2 cells
  Acyclovir control (monolayer rating): +++
HEp2 cells; [8]
  Cytotoxic effect: no cytotoxic effect was observed
HSV-1 [1]; acyclovir 25 mg
  Effectiveness against HSV-1 in vero cells (acyclovir): ++±
HSV-1 [2]; acyclovir 25 mg
  Effectiveness against HSV-1 in SK-N-MC cells (acyclovir): ++±
HSV-2 [3]; acyclovir 25 mg
  Effectiveness against HSV-2 in SK-N-MC cells (acyclovir): ++±
HSV-2 [4]; acyclovir 25 mg
  Effectiveness against HSV-2 in HEp2 cells (acyclovir): ++±
HSV-2 [6]
  Effectiveness against HSV-2 in vero cells (acyclovir): ++±
HSV-1 [5]; acyclovir 25 mg [mg/l]
  Effectiveness against HSV-1 in HEp2 cells (acyclovir): ++±
